Results reported in patent US10759785B2, “Compounds” (ENTERPRISE THERAPEUTICS LIMITED, priority 2016, dated 2020).
Counter-ions that a name gives are not always drawn.

Biological target: T1, ENaC (Homo sapiens, UniProt P37088+P51168+P51170)
T1 construct: host or cells: primary human bronchial epithelial cells (HBECs) differentiated at an air-liquid interface
T1 sequence (P37088 1-669): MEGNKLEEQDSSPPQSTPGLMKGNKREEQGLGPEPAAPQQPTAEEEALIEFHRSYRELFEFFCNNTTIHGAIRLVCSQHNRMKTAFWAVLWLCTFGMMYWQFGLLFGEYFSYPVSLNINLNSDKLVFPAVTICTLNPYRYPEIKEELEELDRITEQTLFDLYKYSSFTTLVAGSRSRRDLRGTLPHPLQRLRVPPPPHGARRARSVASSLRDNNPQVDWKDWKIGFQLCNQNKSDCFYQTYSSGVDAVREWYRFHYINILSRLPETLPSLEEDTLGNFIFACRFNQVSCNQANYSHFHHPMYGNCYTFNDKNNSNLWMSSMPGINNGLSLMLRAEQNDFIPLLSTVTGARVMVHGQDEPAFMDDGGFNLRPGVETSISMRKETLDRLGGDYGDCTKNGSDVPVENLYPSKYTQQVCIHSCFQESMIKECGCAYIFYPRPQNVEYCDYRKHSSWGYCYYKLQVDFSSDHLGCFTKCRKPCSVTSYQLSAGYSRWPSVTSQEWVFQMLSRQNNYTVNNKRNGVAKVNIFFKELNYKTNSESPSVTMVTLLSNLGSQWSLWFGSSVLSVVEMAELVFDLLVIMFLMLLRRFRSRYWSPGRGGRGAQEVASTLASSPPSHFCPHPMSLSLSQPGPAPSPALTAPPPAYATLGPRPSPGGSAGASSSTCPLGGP
T1 sequence (P51168 1-640): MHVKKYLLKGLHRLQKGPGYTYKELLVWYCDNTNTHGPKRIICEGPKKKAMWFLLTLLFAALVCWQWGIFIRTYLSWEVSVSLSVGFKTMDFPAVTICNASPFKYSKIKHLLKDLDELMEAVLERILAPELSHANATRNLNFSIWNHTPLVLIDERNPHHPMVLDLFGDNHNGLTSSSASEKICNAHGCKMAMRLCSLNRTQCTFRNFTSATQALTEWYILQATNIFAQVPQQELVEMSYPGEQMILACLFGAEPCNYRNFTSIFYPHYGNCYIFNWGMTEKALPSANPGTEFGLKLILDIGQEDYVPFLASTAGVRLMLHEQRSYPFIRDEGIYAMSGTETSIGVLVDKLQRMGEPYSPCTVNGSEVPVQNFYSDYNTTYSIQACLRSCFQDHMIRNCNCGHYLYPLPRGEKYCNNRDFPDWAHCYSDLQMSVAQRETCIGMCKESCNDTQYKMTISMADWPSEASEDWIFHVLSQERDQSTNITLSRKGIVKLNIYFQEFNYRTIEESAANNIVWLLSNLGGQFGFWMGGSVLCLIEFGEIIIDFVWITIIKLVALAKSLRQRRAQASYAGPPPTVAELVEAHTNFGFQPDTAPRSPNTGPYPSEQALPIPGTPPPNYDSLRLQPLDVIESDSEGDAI
T1 sequence (P51170 1-649): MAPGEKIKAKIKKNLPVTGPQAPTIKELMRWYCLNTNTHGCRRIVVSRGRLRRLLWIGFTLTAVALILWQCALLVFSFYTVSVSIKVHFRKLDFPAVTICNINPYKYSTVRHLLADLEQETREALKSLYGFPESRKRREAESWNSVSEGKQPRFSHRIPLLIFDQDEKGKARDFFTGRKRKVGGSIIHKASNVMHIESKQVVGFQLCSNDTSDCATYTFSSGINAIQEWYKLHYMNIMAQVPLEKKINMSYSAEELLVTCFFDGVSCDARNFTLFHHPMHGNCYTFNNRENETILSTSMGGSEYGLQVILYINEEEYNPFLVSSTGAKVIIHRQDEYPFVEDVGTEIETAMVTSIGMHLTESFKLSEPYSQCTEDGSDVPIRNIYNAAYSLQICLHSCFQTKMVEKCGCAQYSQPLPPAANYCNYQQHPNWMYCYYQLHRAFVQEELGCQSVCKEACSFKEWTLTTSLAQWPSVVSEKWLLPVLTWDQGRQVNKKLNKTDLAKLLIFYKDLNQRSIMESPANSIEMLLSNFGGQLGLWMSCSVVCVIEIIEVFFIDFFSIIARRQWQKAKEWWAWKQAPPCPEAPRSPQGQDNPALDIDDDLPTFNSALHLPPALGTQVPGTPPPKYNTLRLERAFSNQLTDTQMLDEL
Experiment: Short circuit current assay to determine ENaC blocker potency in human bronchial epithelial cells
Format: cell-based
Details: 50% inhibition of total amiloride-sensitive ISC, HBECs, apical addition; read-out: Averages. ENaC Ic50 μm Avg
Experimental: Example 27—Short Circuit Current Assay to Determine ENaC Blocker Potency in Human Bronchial Epithelial Cells
Human bronchial epithelial cells (HBECs) (Lonza, UK) were cultured using a modification of the method described by Coote et al, (2008). Cells were seeded into plastic T-75 flasks and grown in Bronchial Epithelial Cell Growth Medium (BEGM) (Lonza, UK) supplemented with bovine pituitary extract (52 ng/mL), hydrocortisone (0.5 μg/mL), human recombinant Epidermal Growth Factor (0.5 ng/mL), epinephrine (0.5 ng/mL), transferrin (10 ng/mL), insulin (5 ng/mL), retinoic acid (0.1 ng/mL), triiodothyronine (6.5 ng/mL), gentamycin (50 μg/mL) and amphotericin-B (50 ng/mL). Medium was changed every 48 hours until cells were 90% confluent. Cells were then passaged and seeded (8.25×10^5 cells/insert) onto polycarbonate Snapwell™ inserts (Costar, UK) in differentiation media containing 50% DMEM in BGEM with the same supplements as above but without triiodothyronine and a final retinoic acid concentration of 50 nM (all-trans retinoic acid; Sigma-Aldrich, UK). Cells were maintained submerged for the first 7 days in culture after which time they were exposed to an apical air interface for the remainder of the culture period. From the first day of establishment of an ALI, HBEC were fed with a DMEM:HAMS F-12 (1:1) media containing 2% Ultroser G (Pall BioSepra, France) with gentamycin (50 μg/mL) and amphotericin B (50 ng/mL). Cells were used for short-circuit current assay between days 14-21 after the establishment of the ALI. At all stages of culture, cells were maintained at 37′C in 5% CO2 in an air incubator.
Short-Circuit Current (ISC) Measurements
Snapwell inserts were mounted in Costar Vertical Diffusion Chambers (Costar, UK) and were bathed with continuously gassed Ringer solution (5% CO2 in O2; pH 7.4) maintained at 37° C. containing (in mM): 120 NaCl, 25 NaHCO3, 3.3 KH2PO4, 0.8 K2HPO4, 1.2 CaCl2, 1.2 MgCl2 and 10 glucose. The solution osmolarity was always between 280-300 mOsm/kg H2O for all physiological salt solutions used. Cells were voltage clamped to 0 mV (model EVC4000, WPI). Transepithelial resistance (RT) was measured by applying a 2 mV pulse at 30 s intervals and calculating RT by Ohm's law. Data were recorded using a PowerLab workstation (ADInstruments, UK).
ENaC blocker compounds were added to the apical chamber from a 1000-fold stock solution (prepared in DMSO) to achieve a cumulative concentration response in terms of the inhibition of the basal ISC. At the completion of the concentration response, a supra-maximal concentration of amiloride (10 μM) was added. The concentration of test compound that induced a 50% inhibition of the total amiloride-sensitive ISC (IC50) was calculated using GraphPad Prism v6.05.

| SMILES | IC50 |
| --- | --- |
| CCn1c(CNC(=O)c2nc(Br)cnc2N)[n+](CCOCCOCCO)c2ccc(OC)cc21.O=C[O-] [Example 4, 2-{[(3-amino-6-bromopyrazin-2-yl)formamido]methyl}-1-ethyl-3-{2-[2-(2-hydroxyethoxy)ethoxy]ethyl}-6-methoxy-1H-1,3-benzodiazol-3-ium formate] | 4 nM |
| CCc1cnc(N)c(C(=O)NCc2n(CC)c3cc(OC)ccc3[n+]2C)n1.[I-] [Example 8, 2-{[(3-amino-6-ethylpyrazin-2-yl)formamido]methyl}-1-ethyl-6-methoxy-3-methyl-1H-1,3-benzodiazol-3-ium iodide] | 224 nM |
| CCn1c(CNC(=O)c2nc(SC)cnc2N)[n+](C)c2ccc(OC)cc21.[I-] [Example 9, 2-({[3-amino-6-(methylsulfanyl)pyrazin-2-yl]formamido}methyl)-1-ethyl-6-methoxy-3-methyl-1H-1,3-benzodiazol-3-ium iodide] | 74 nM |
| CCn1c(CNC(=O)c2nc(Br)cnc2N)[n+](CC)c2ccc(C(=O)N[C@@H]3CCOC3=O)cc21 [Example 17, 2-{[(3-amino-6-bromopyrazin-2-yl)formamido]methyl}-1,3-diethyl-6-{[(3R)-2-oxooxolan-3-yl]carbamoyl}-1H-1,3-benzodiazol-3-ium formate] | 3 nM |
| CCn1c(CNC(=O)c2nc(Br)cnc2N)[n+](C)c2ccc(C(F)(F)F)cc21.[I-] [Example 13, 2-{[(3-amino-6-bromopyrazin-2-yl)formamido]methyl}-1-ethyl-3-methyl-6-(trifluoromethyl)-1H-1,3-benzodiazol-3-ium iodide] | 4 nM |
| CCn1c(CNC(=O)c2nc(Br)cnc2N)[n+](CC)c2ccc(-c3cnn(C4CCN(C(=O)OC(C)(C)C)CC4)c3)cc21.[I-] [Example 20, 2-{[(3-amino-6-bromopyrazin-2-yl)formamido]methyl}-6-(1-{1-[(tert-butoxy)carbonyl]piperidin-4-yl}-1H-pyrazol-4-yl)-1,3-diethyl-1H-1,3-benzodiazol-3-ium iodide] | 1 nM |

Results, then the compound that gave them:

| IC50 | SMILES |
| --- | --- |
| 2 nM | CCn1c(CNC(=O)c2nc(Br)cnc2N)[n+](C)c2ccc(Cl)cc21.O=CO.O=C[O-] [Example 11, 2-{[(3-amino-6-bromopyrazin-2-yl)formamido]methyl}-6-chloro-1-ethyl-3-methyl-1H-1,3-benzodiazol-3-ium formic acid formate] |
| 1 nM | CCn1c(CNC(=O)c2nc(Br)cnc2N)[n+](CC)c2ccc(-c3cnn(C4CCNCC4)c3)cc21.Cl.[I-] [Example 21, 2-{[(3-amino-6-bromopyrazin-2-yl)formamido]methyl}-1,3-diethyl-6-[1-(piperidin-4-yl)-1H-pyrazol-4-yl]-1H-1,3-benzodiazol-3-ium hydrochloride iodide] |
| 2 nM | CCn1c(CNC(=O)c2nc(Br)cnc2N)[n+](CC)c2ccc(-c3cnn(C4CCN(C[C@H](O)[C@@H](O)[C@H](O)[C@H](O)CO)CC4)c3)cc21.O=CO.[Cl-] [Example 23, 2-{[(3-amino-6-bromopyrazin-2-yl)formamido]methyl}-1,3-diethyl-6-(1-{1-[(2S,3R,4R,5R)-2,3,4,5,6-pentahydroxyhexyl]piperidin-4-yl}-1H-pyrazol-4-yl)-1H-1,3-benzodiazol-3-ium formic acid chloride] |
| 1 nM | CCn1c(CNC(=O)c2nc(Br)cnc2N)[n+](CC)c2ccc(OC)cc21.O=C[O-] [Example 2, 2-{[(3-amino-6-bromopyrazin-2-yl)formamido]methyl}-1,3-diethyl-6-methoxy-1H-1,3-benzodiazol-3-ium formate] |
| 2 nM | CCn1c(CNC(=O)c2nc(Br)cnc2N)[n+](CC)c2ccc(C(=O)OC)cc21.[I-] [Example 15, 2-{[(3-amino-6-bromopyrazin-2-yl)formamido]methyl}-1,3-diethyl-6-(methoxycarbonyl)-1H-1,3-benzodiazol-3-ium iodide] |
